Values of other authors as cited in US6803187B1 (priority 1998, dated 2004).

Experiments:
HIV protease = conditions: HIV-1 protease numbering

CC(C)(C)NC(=O)[C@@H]1CN(Cc2cccnc2)CCN1C[C@@H](O)C[C@@H](Cc1ccccc1)C(=O)N[C@H]1c2ccccc2C[C@H]1O [MK-639, indinavir]
share of indinavir resistant isolates cross-resistant to nelfinavir (HIV; human, in vivo): Approximately one third

CC(C)(C)NC(=O)[C@@H]1C[C@@H]2CCCC[C@@H]2CN1C[C@@H](O)[C@H](Cc1ccccc1)NC(=O)[C@H](CC(N)=O)NC(=O)c1ccc2ccccc2n1 [Ro 31-8959, saquinavir]
patients in whom resistant variants emerge (HIV; after 1 year of monotherapy, mutations at positions 90 and/or 48): approximately 45%

CC(C)CN(C[C@@H](O)[C@H](Cc1ccccc1)NC(=O)O[C@H]1CCOC1)S(=O)(=O)c1ccc(N)cc1 [VX-478]
amino acid position/codon whose change confers resistance (HIV protease): 50
